According to patent publication US7202218B2, “Oligopeptide antagonist of interleukin-6” (National Taiwan University, priority 2005, dated 2007):
Where no end group is shown, it is not given here.

Assays:
VEGF-A = VEGF-A secretion, quantitative sandwich ELISA of conditioned medium; type: cell-based; settings: C33A, RPMI 8226 and BCC cells (all three cell lines); 24 hours; FIG. 5
Experimental: (§1) C33A cervical cancer cells, RPMI 8226 multiple myeloma cells and basal cell carcinoma (BCC) cells, vectors (negative control) were cultivated respectively in DMEM containing 10% FBS, penicillin (100 units/ml), and streptomycin (100 μg/mL) as well as IL-6 protein. At 90% confluence, culture medium was replaced with serum-free medium. IL-6 containing C33A cells were incubated with S1 or S7 peptide for another 24 hours. Conditioned medium (CM) was collected after centrifugation of cellular debris.
The conditioned medium (CM) was concentrated using an Amicon ultracentrifugation device (Millipore). The concentrations of VEGF-A in culture supernatants were determined with quantitative sandwich ELISA assay according to the manufacturer's instruction. Briefly, cell supernatant (50 μl) was incubated with 50 μl of assay diluents for 2 hours at room temperature in a 96-well tissue culture plate coated with monoclonal antibodies against VEGF-A. After five consecutive washes, a conjugate consisting of polyclonal VEGF-A antibodies and HRP was added. The mixture was incubated for 2 hours at room temperature. Following the subsequent addition of a color reagent, absorbance was read at 450 nm using a Thermo-Max microplate reader (Molecular Devices Co., Menlo Park, Calif.).

HUVECs [1] = test: Capillary tube-like formation by HUVECs on Matrigel; type: cell-based, human; settings: 6 hours, FIG. 7
Experimental: In vitro Assessment using a growth factor-reduced basement membrane Matrigel matrix was carried out to evaluate capillary tube-like formation. The Matrigel was thawed at 4° C. and mixed to homogeneity. The bottom of 96-well cell culture plates were coated with a thin layer of Matrigel (40 μl) and allow the Matrigel to polymerize at 37° C. for 30 minutes. HUVECs were resuspended in M199 medium containing 1% serum to a density of 2.5×10^4 cells/100 μl, mixed with 100 μl of M199 medium containing 1% serum and 100 μl CM from either C33A/neo or C33A/IL-6 cells treated in various ways, and finally plated onto the Matrigel-coated surface. Six hours later, cells were fixed in 4% paraformaldehyde and stained with 0.1% crystal violet. Three microscopic fields were selected at random and photographed, and the number of tube-like structures per field was determined to get the result shown in FIG. 7.

HUVECs [2] = test: HUVEC proliferation induced by IL-6-CM, trypan blue exclusion; type: cell-based, human; settings: CM from IL-6-overexpressed cells; 24 hours; FIG. 6
Experimental: as §1
HUVECs were plated onto six-well dishes (Falcon, Becton Dickinson) at a concentration of 2.5×10^5 cells per well in M199 medium supplemented with 10% FBS. One day after seeding, HUVECs were stimulated with CM from cells treated in various ways respectively, where the CM was mixed with M199 medium. Twenty-four hours later, the viable cells were counted using a trypan blue exclusion method.
For the trypan blue exclusion assay, cells were washed with PBS, trypsinized, and then resuspended in 1 ml PBS. Trypan blue-stained cells were then counted using a modified Neubauer hemocytometer under a phase-contrast light microscope.

[3] = test system: Ras/MAPK and PI3-K/Akt signaling pathways; test: Western blot of IL-6-induced Akt and ERK1/2 phosphorylation in C33A cells; type: cell-based, human; settings: IL-6 50 ng/mL, peptide 50 μmol/L, FIG. 4A
Experimental: (§2) 80% confluent C33A cells were starved for 24 hours and then treated with human IL-6 protein (50 ng/mL) in the presence or absence of S1 peptide (50 μmol/L) or S7 peptide (50 μmol/L). Cell lysates were obtained and subjected to SDS-PAGE separation and Western blot analysis using various antibodies for immunoblotting, such as anti-phospho-ERK1/2, anti-phospho-Akt, anti-ERK1/2, and anti-Akt.

Mcl-1 protein = test: Western blot of IL-6-induced Mcl-1 protein in C33A cells; type: cell-based, human; settings: FIG. 4B
Experimental: as §2
Equal amounts of cell lysates (75 μg) were resolved by SDS-PAGE, transferred to polyvinylidene difluoride membranes, and probed with specific anti-Mcl-1 antibodies as described above. β-actin served as the internal loading control to get the result shown in FIG. 4A.

[4] = test system: IL-6-induced angiogenesis; test: Matrigel plug assay, hemoglobin level; type: in vivo; settings: BALB/c nude mice; plugs recovered after 7 days; FIG. 8
Experimental: On the other hand, Matrigel plug assay was performed to analyze the inhibiting effect on IL-6-induced angiogenesis of peptide S7. Matrigel (500 μl) containing CM from cells treated in various ways was […] into 4- to 8-week-old female BALB/c nude mice at sites lateral to the abdominal midline. Aforementioned CM was obtained either from vector control cells or from IL-6 overexpressed C33A cells in the presence or absence of peptide S7. The Matrigel plugs were recovered after 7 days of implementation, dissolved in PBS, and incubated at 4° C. overnight. Hemoglobin levels were determined using Drabkin's solution (Sigma Chemical) according to the manufacturer's instructions to get the result shown in FIG. 8.

[5] = target: T1, IL-6Rα in different cell lines (Homo sapiens, UniProt P08887); test: In vitro competition assay of synthetic peptides on cell lines; type: cell-based; settings: synthetic peptide; FIG. 3
T1 construct: all membrane-type IL-6Rα-expressing cell lines; endogenous in cells
T1 sequence (P08887 20-468): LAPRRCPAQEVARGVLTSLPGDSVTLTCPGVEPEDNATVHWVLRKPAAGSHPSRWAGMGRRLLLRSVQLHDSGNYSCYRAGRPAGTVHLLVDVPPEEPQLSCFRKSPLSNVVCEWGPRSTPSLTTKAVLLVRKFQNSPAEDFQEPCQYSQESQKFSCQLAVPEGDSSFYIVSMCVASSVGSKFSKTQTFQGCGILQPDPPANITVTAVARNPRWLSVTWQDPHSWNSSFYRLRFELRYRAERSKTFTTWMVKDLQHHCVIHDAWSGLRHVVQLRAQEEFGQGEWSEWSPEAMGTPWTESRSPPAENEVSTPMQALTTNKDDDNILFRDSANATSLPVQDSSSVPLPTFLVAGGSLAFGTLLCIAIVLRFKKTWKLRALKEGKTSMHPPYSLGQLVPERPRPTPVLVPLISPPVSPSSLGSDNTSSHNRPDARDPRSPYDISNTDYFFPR
Experimental: The binding affinities to IL-6Rα of the 7 independent peptide sequences of the IR-6Rα-binding clones selected from phage display peptide library (Table 1) were confirmed. The phage clones with the inserted DNA encoding these 7 different peptide sequences (phage S1˜S7) were added into IL-6Rα coated 96-well cell culture plates (10^12 pfu/ml) and incubated with IL-6Rα for 1 hour. IL-6 protein (50 ng/ml, 100 μl) was added to the wells and incubated at room temperature for 2 hours. The plates were thoroughly washed with 0.1% BSA (bovine serum albumin)/PBS (phosphate-buffered saline) buffer (pH 8.5). Finally, biotin-conjugated anti-IL-6 monoclonal antibody, horseradish peroxidase (HRP)-conjugated streptavidin and tetramethyl benzidine (TMB) substrate solution were used to perform the known phage Enzyme-Linked Immunosorbent Assay (ELISA) to determine the L-6 protein bound to the cell plates.
Oligopeptides encoded by the inserted DNA in phages S7 and S1 (labeled as ‘peptide S7’ (SEQ ID NO: 7) or ‘peptide S1’ (SEQ ID NO: 1) hereafter) were produced by the known peptide synthesis method. The binding assay described in Example 1 was carried out, but using peptide S7 or peptide S1 (negative control) instead of phage clones, and using cell lines instead of IL-6Rα to perform competition assay and get the result shown in FIG. 3.

C33A/IL-6 cells = test: Tumor growth inhibition in SCID mice injected with C33A/IL-6 cells; type: in vivo; settings: 50 mg/kg i.p. every 2 days, FIG. 9
Experimental: Six- to 8-week-old female severe combined immunodeficient (SCID) mice were […] with 1×10^6 C33A/neo or C33A/IL-6 cells. Beginning 3 days later, S1 or S7 peptide (50 mg/kg, dissolved in PBS) was injected i.p. every 2 days. Tumor development was followed in measurements of length (L) and width (W).

Substance	IL-6-mediated VEGF-A secretion (VEGF-A)	C33A/IL-6-CM induced tube-like cell cord formation (HUVECs [1])	IL-6-CM induced HUVECs proliferation (HUVECs [2])	inhibition of IL-6-induced phosphorylated Akt level [3]	inhibition of IL-6-induced phosphorylated ERK1/2 MAPK level [3]	IL-6-induced up-regulation of Mcl-1 protein (Mcl-1 protein)	hemoglobin induction in Matrigel plugs containing C33A/IL-6-CM [4]	antagonism of the binding of IL-6 to IL-6Rα in different cell lines [5]	IL-6-induced tumor growth (C33A/IL-6 cells)	tumor growth inhibition at the end of the experiment (C33A/IL-6 cells; tumor volume)
LSLITRL [peptide S7]	significantly decreased	almost completely inhibited	greatly attenuated	significantly inhibited	significantly inhibited	antagonized	almost completely inhibited	antagonize the binding	significantly reduced	76%
LSLMPRL [peptide S1, negative control peptide, reference compound]	–	–	not	not	not	–	–	–	–	–
